ChEMBL document CHEMBL1201862, “PubChem BioAssay data set” (2004)
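Values below derive from 48-hour exposures of cells grown in 96-well plates, with endpoints linearly interpolated between the two concentrations bracketing the appropriate inhibition level. Here, GI50 denotes the concentration required for 50% inhibition of growth.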 The source made the active and inactive calls. Cut-off read from the data, not from the text of the source: active = GI50 up to about 1.1 µM and inactive = higher.

How the values were obtained:
Assay in all cases: DTP human tumour cell line panel, 48 h
[1] = tested on: SN12C
[2] = tested on: OVCAR-4
[3] = tested on: ACHN
[4] = tested on: MOLT-4
[5] = tested on: LOX IMVI
[6] = tested on: CCRF-CEM
[7] = tested on: TK-10
[8] = tested on: EKVX
[9] = tested on: OVCAR-8
[10] = tested on: SR
[11] = tested on: SK-MEL-28
[12] = tested on: HOP-92
[13] = tested on: NCI-H522
[14] = tested on: SF-295
[15] = tested on: IGROV-1
[16] = tested on: SNB-75
[17] = tested on: HCC 2998
[18] = tested on: HOP-62
[19] = tested on: HT-29
[20] = tested on: UO-31

Measured: GI50

O=C(CCC(NC(=O)OCc1ccccc1)C(=O)OCc1ccccc1)Nc1cccc(OCc2ccccc2)c1 (stereo not given)
inactive: [1] 20.2 µM | [2] 30.2 µM | [3] 29.7 µM | [4] 26.4 µM | [5] 19.3 µM | [6] 27.3 µM | [7] 29.4 µM | [8] 35.6 µM | [9] 26.5 µM | [10] 18.5 µM | [11] 40.4 µM | [12] 25 µM | [13] 18.7 µM | [14] 59.6 µM | [15] 30.3 µM | [16] 35.6 µM | [17] 42.7 µM | [18] 28.6 µM | [19] 29.9 µM

FC(F)(F)c1ccc2c(c1)nc1n2C(c2c(Cl)cccc2Cl)SC1 (stereo not given)
inactive: [1] 16.9 µM | [2] 18.3 µM | [3] 15.9 µM | [4] 38.7 µM | [5] 25.9 µM | [7] 22 µM | [8] 14.2 µM | [20] 15.4 µM | [9] 25.4 µM | [10] 20.7 µM | [11] 14.4 µM | [12] 13.6 µM | [13] 22 µM | [14] 16.6 µM | [15] 17.3 µM | [16] 15.1 µM | [17] 21.8 µM | [18] 15.4 µM | [19] 16.1 µM

CC1=NC(=O)CNN1C1=NNC2(C(=O)N1)c1ccccc1-c1ccccc12
inactive: [1] > 100 µM | [2] > 100 µM | [3] > 100 µM | [5] > 100 µM | [6] > 100 µM | [7] > 100 µM | [8] > 100 µM | [20] > 100 µM | [9] > 100 µM | [10] 55 µM | [11] > 100 µM | [12] > 100 µM | [13] > 100 µM | [14] > 100 µM | [15] > 100 µM | [16] > 100 µM | [17] > 100 µM | [18] > 100 µM | [19] > 100 µM

COc1cccc(/C=C2/S/C(=N/Nc3nc(C)c(C(C)=O)s3)NC2=O)c1O
inactive: [1] 31.7 µM | [2] 30.3 µM | [3] 22 µM | [5] 31.7 µM | [6] 18.2 µM | [7] 27.6 µM | [8] 24.9 µM | [20] 21.5 µM | [9] 34.3 µM | [10] 27.7 µM | [11] 39.7 µM | [12] 28.9 µM | [13] 17.3 µM | [14] 52.8 µM | [15] 35.9 µM | [16] 37.9 µM | [17] 35.6 µM | [18] 51.6 µM | [19] 37.6 µM

CSC1(C)C(=O)Nc2c(OCc3ccccc3)cc([N+](=O)[O-])cc21 (stereo not given)
inactive: [1] 13.4 µM | [2] > 100 µM | [3] > 100 µM | [4] 83.6 µM | [5] 53 µM | [6] 84.3 µM | [7] > 100 µM | [8] 29.4 µM | [9] 21.5 µM | [10] > 100 µM | [11] 75.3 µM | [12] 20 µM | [13] 94.8 µM | [14] 57.1 µM | [15] 54.8 µM | [16] 11.9 µM | [17] > 100 µM | [18] > 100 µM | [19] 79.3 µM
